Assay results from US20060235076A1, “Medicinal composition for treating infection with drug-resistant staphylococcus aureus” (priority 2003, published 2006).
Values after ≈ are worked out from the molar mass of the structure shown. Read-outs that look alike come from different tables or passages of the source.

Legend:
[1] = test system: MRSA and MSSA; assay: Antibacterial activity of gallic acid, various gallates and multivalent phenol derivatives alone (agar plate dilution method, MIC); format: cell-based, Staphylococcus aureus; conditions: Staphylococcus aureus; for MIC: read-out: MIC alone
Experimental: According to the agar plate dilution method defined by Japan Society of Chemotherapy, MIC (Minimum inhibitory concentration) was determined. CAMHA was prepared by adding 50 mg/l of Ca-ion, 25 mg/l of Mg-ion, and 2% of NaCl to Mueller-Hinton II Agar (MHA), and it was used as a medium for use in the measurement of sensitivity. The bacterial liquid was incubated at 37° C. overnight and diluted to 10^6 CFU/ml with saline.
MIC for gallic acid, various gallates and multivalent phenol derivatives alone with MRSA and MSSA were determined as described in experiment 2.

[2] = test system: MRSA COL and MRSA Strain No. 5; assay: Potentiating effect of various gallates for antibacterial activity of oxacillin (MIC by broth microdilution method and FIC); format: cell-based, Staphylococcus aureus; conditions: for FIC value: combination with oxacillin
Experimental: According to the broth microdilution method defined by Japan Society of Chemotherapy, MIC was determined. CAMHA was prepared by adding 50 mg/l of Ca-ion, 25 mg/l of Mg-ion, and 2% of NaCl to MHB (Mueller-Hinton Broth), and it was used as a medium for use in the measurement of sensitivity. In 96-well microplates 100 μl of the medium for use in the measurement of sensitivity containing drugs was dispensed. The bacterial liquid was incubated at 37° C. overnight, diluted with saline and added to the plate so that the final concentration of the bacteria was 5×10^5 CFU/well. […] FIC (fractional inhibitory concentration) was calculated from the result and the potency of the effect of the combination use was evaluated.

[3] = ATCC 6538 / MRSA / MSSA, ATCC6538

| Structure (SMILES) | MIC ([1]; COL) | MIC ([1]; MRSA #1) | MIC ([1]; MRSA #2) | MIC ([1]; MRSA #3) | MIC ([1]; MRSA #4) | MIC ([1]; MRSA #5) | MIC ([1]; MRSA #6) | MIC ([1]; MRSA #7) | MIC ([1]; MRSA #8) | MIC ([1]; MRSA #9) | MIC ([1]; MRSA #10) | MIC ([1]; MRSA #12) | MIC ([1]; MRSA #16) | MIC ([1]; MRSA #17) | MIC ([1]; MRSA #18) | MIC ([1]; MRSA #20) | MIC ([1]; MRSA #21) | MIC ([1]; MRSA #22) | MIC ([1]; MRSA #24) | MIC ([1]; MSSA #1003) | also measured |
| --- | --- | --- | --- | --- | --- | --- | --- | --- | --- | --- | --- | --- | --- | --- | --- | --- | --- | --- | --- | --- | --- |
| CCCCOC(=O)c1cc(O)c(O)c(O)c1 [Butyl gallate, n-butyl gallate] | 125 mg/L (≈ 553 µM) | 125 mg/L (≈ 553 µM) | 125 mg/L (≈ 553 µM) | 125 mg/L (≈ 553 µM) | 125 mg/L (≈ 553 µM) | 125 mg/L (≈ 553 µM) | 62.5 mg/L (≈ 276 µM) | 125 mg/L (≈ 553 µM) | 125 mg/L (≈ 553 µM) | 62.5 mg/L (≈ 276 µM) | 62.5 mg/L (≈ 276 µM) | 125 mg/L (≈ 553 µM) | 125 mg/L (≈ 553 µM) | 125 mg/L (≈ 553 µM) | 125 mg/L (≈ 553 µM) | 125 mg/L (≈ 553 µM) | 125 mg/L (≈ 553 µM) | 125 mg/L (≈ 553 µM) | 125 mg/L (≈ 553 µM) | 125 mg/L (≈ 553 µM) | MIC [1, 3]: 125 mg/L (≈ 553 µM); MIC ([1]; MSSA #1010): 125 mg/L (≈ 553 µM); MIC ([1]; MSSA #1020): 125 mg/L (≈ 553 µM); MIC ([1]; MSSA #1023): 125 mg/L (≈ 553 µM); MIC ([1]; MSSA #1029): 62.5 mg/L (≈ 276 µM); MIC ([1]; MSSA #1032): 125 mg/L (≈ 553 µM); MIC50 ([1]; compound alone, over all strains of Table 3-1, read-out: MIC50): 125 mg/L (≈ 553 µM); effect of the combination use with oxacillin by FIC values ([2]; COL Strain and Strain No. 5): most potent effect of the combination use; FIC value ([2]; MRSA COL): 0.129; FIC value ([2]; MRSA Strain No. 5): 0.254 |
| CCCCCCCCCCOC(=O)c1cc(O)c(O)c(O)c1 [Decyl gallate, n-decyl gallate] | 15.7 mg/L (≈ 50.6 µM) | 15.7 mg/L (≈ 50.6 µM) | 15.7 mg/L (≈ 50.6 µM) | 15.7 mg/L (≈ 50.6 µM) | 15.7 mg/L (≈ 50.6 µM) | 15.7 mg/L (≈ 50.6 µM) | 15.7 mg/L (≈ 50.6 µM) | 15.7 mg/L (≈ 50.6 µM) | 15.7 mg/L (≈ 50.6 µM) | 15.7 mg/L (≈ 50.6 µM) | 15.7 mg/L (≈ 50.6 µM) | 15.7 mg/L (≈ 50.6 µM) | 15.7 mg/L (≈ 50.6 µM) | 15.7 mg/L (≈ 50.6 µM) | 15.7 mg/L (≈ 50.6 µM) | 15.7 mg/L (≈ 50.6 µM) | 31.3 mg/L (≈ 101 µM) | 31.3 mg/L (≈ 101 µM) | 31.3 mg/L (≈ 101 µM) | 15.7 mg/L (≈ 50.6 µM) | MIC50 [1]: 15.7 mg/L (≈ 50.6 µM); MIC ([1]; ATCC 6538 / MRSA / MSSA): 15.7 mg/L (≈ 50.6 µM); MIC ([1]; MRSA and MSSR): 15.7 mg/L (≈ 50.6 µM); MIC ([1]; MSSA #1010): 15.7 mg/L (≈ 50.6 µM); MIC ([1]; MSSA #1020): 15.7 mg/L (≈ 50.6 µM); MIC ([1]; MSSA #1023): 15.7 mg/L (≈ 50.6 µM); MIC ([1]; MSSA #1029): 15.7 mg/L (≈ 50.6 µM); MIC ([1]; MSSA #1032): 15.7 mg/L (≈ 50.6 µM); antibacterial activity when used alone ([2]; COL Strain and Strain No. 5): most potent; FIC value ([2]; MRSA COL): 0.258; FIC value ([2]; MRSA Strain No. 5): 0.508 |
| CCOC(=O)c1cc(O)c(O)c(O)c1 [Ethyl gallate, ethyl gallate] | 125 mg/L (≈ 631 µM) | 125 mg/L (≈ 631 µM) | 62.5 mg/L (≈ 315 µM) | 125 mg/L (≈ 631 µM) | 62.5 mg/L (≈ 315 µM) | 125 mg/L (≈ 631 µM) | 62.5 mg/L (≈ 315 µM) | 125 mg/L (≈ 631 µM) | 125 mg/L (≈ 631 µM) | 62.5 mg/L (≈ 315 µM) | 62.5 mg/L (≈ 315 µM) | 125 mg/L (≈ 631 µM) | 125 mg/L (≈ 631 µM) | 62.5 mg/L (≈ 315 µM) | 62.5 mg/L (≈ 315 µM) | 125 mg/L (≈ 631 µM) | 125 mg/L (≈ 631 µM) | 125 mg/L (≈ 631 µM) | 125 mg/L (≈ 631 µM) | 125 mg/L (≈ 631 µM) | MIC50 [1]: 125 mg/L (≈ 631 µM); MIC ([1]; ATCC 6538 / MRSA / MSSA): 125 mg/L (≈ 631 µM); MIC ([1]; MSSA #1010): 125 mg/L (≈ 631 µM); MIC ([1]; MSSA #1020): 125 mg/L (≈ 631 µM); MIC ([1]; MSSA #1023): 62.5 mg/L (≈ 315 µM); MIC ([1]; MSSA #1029): 62.5 mg/L (≈ 315 µM); MIC ([1]; MSSA #1032): 125 mg/L (≈ 631 µM); FIC value ([2]; MRSA COL): 0.125; FIC value ([2]; MRSA Strain No. 5): 0.156 |
| CCCCCCCOC(=O)c1cc(O)c(O)c(O)c1 [Heptyl gallate, n-heptyl gallate] | 31.3 mg/L (≈ 117 µM) | 31.3 mg/L (≈ 117 µM) | 31.3 mg/L (≈ 117 µM) | 31.3 mg/L (≈ 117 µM) | 31.3 mg/L (≈ 117 µM) | 31.3 mg/L (≈ 117 µM) | 31.3 mg/L (≈ 117 µM) | 31.3 mg/L (≈ 117 µM) | 31.3 mg/L (≈ 117 µM) | 31.3 mg/L (≈ 117 µM) | 31.3 mg/L (≈ 117 µM) | 31.3 mg/L (≈ 117 µM) | 31.3 mg/L (≈ 117 µM) | 31.3 mg/L (≈ 117 µM) | 31.3 mg/L (≈ 117 µM) | 31.3 mg/L (≈ 117 µM) | 31.3 mg/L (≈ 117 µM) | 31.3 mg/L (≈ 117 µM) | 31.3 mg/L (≈ 117 µM) | 31.3 mg/L (≈ 117 µM) | MIC50 [1]: 31.3 mg/L (≈ 117 µM); MIC ([1]; ATCC 6538 / MRSA / MSSA): 31.3 mg/L (≈ 117 µM); MIC ([1]; MSSA #1010): 31.3 mg/L (≈ 117 µM); MIC ([1]; MSSA #1020): 31.3 mg/L (≈ 117 µM); MIC ([1]; MSSA #1023): 31.3 mg/L (≈ 117 µM); MIC ([1]; MSSA #1029): 31.3 mg/L (≈ 117 µM); MIC ([1]; MSSA #1032): 31.3 mg/L (≈ 117 µM); FIC value ([2]; MRSA COL): 0.563; FIC value ([2]; MRSA Strain No. 5): 0.75 |
| CCCCCCOC(=O)c1cc(O)c(O)c(O)c1 [Hexyl gallate, n-hexyl gallate] | 31.3 mg/L (≈ 123 µM) | 62.5 mg/L (≈ 246 µM) | 31.3 mg/L (≈ 123 µM) | 31.3 mg/L (≈ 123 µM) | 31.3 mg/L (≈ 123 µM) | 31.3 mg/L (≈ 123 µM) | 31.3 mg/L (≈ 123 µM) | 31.3 mg/L (≈ 123 µM) | 31.3 mg/L (≈ 123 µM) | 31.3 mg/L (≈ 123 µM) | 31.3 mg/L (≈ 123 µM) | 62.5 mg/L (≈ 246 µM) | 62.5 mg/L (≈ 246 µM) | 62.5 mg/L (≈ 246 µM) | 62.5 mg/L (≈ 246 µM) | 62.5 mg/L (≈ 246 µM) | 62.5 mg/L (≈ 246 µM) | 62.5 mg/L (≈ 246 µM) | 62.5 mg/L (≈ 246 µM) | 62.5 mg/L (≈ 246 µM) | MIC50 [1]: 62.5 mg/L (≈ 246 µM); MIC [1, 3]: 31.3 mg/L (≈ 123 µM); MIC ([1]; MSSA #1010): 62.5 mg/L (≈ 246 µM); MIC ([1]; MSSA #1020): 62.5 mg/L (≈ 246 µM); MIC ([1]; MSSA #1023): 62.5 mg/L (≈ 246 µM); MIC ([1]; MSSA #1029): 62.5 mg/L (≈ 246 µM); MIC ([1]; MSSA #1032): 62.5 mg/L (≈ 246 µM); FIC value ([2]; MRSA COL): 0.5; FIC value ([2]; MRSA Strain No. 5): 0.502 |
